The text below walks through data of patent publication US11479587B2, “Cationic intrinsically disordered antimicrobial peptides” (priority 2016, dated 2022).

Marks after values point to notes of the source that are not given here. No end group written: not given here. *: point of attachment. Biotin = O=C1N[C@H]2[C@H](CS[C@H]2CCCCC(=O)*)N1 Some results are limits rather than exact numbers.

For one test, the system named is P. aeruginosa ATCC 10145. Nature of the test: CFU-assay, P. aeruginosa-cidal activity. It counts as cell-based, Pseudomonas aeruginosa. Particulars: pH 5.0, 0.25% glucose.
“SLSSGHGSGHGHQRGGHRSGSG (Peptide with scrambled amino acid sequence of a 18 amino acid peptide derived from human hornerin (scrHR 1-18))” displayed an MBC90 of less than 0.019 µg/mL and an MBC100 of 0.075 µg/mL.
For “GRHGSGGGHSSSHGGHGSGSGR (Modified peptide derived from human hornerin (HR 1-18 L-G/Q-G))” the same measures were 0.038 µg/mL and 0.15 µg/mL.
Take “Biotin-GRHGSGLGHSSSHGQHGSGSGR [Biotin-HR 1-18]”: the MBC100 was more than 300 µg/mL.
The substance “RGSGSGHQGHSSSHGLGSGHRG (Peptide with reverse sequence to 18 amino acid peptide derived from human hornerin (revHR 1-18))” came in with an MBC90 of less than 0.019 µg/mL and an MBC100 of 0.075 µg/mL.
With “GHHGGGGGHGGGHGGHGGGGGH (Modified peptide derived from human hornerin (HR 1-18 G+H)) [HR 1-18 G + H]”, the MBC90 is less than 0.006 µg/mL and the MBC100 turned out to be 0.09 µg/mL.

Still in this test, the particulars now being: pH 5.5, 0.25% glucose.
“HTHSGHTHGQSGSQHGESESIIHDR (Peptide derived from human filaggrin-2 (FLG-2 1515-1539)) [FLG-21515-1539]” returned an MBC90 of 0.075 µg/mL and an MBC100 of 0.59 µg/mL.
For GOOGGOGGOGOGO [Orn-GR13] the same measures were 0.034 µM and 1.1 µM.
The corresponding values for “HTHSGHTHGQAGSHYPESGSSVHER (Peptide derived from human filaggrin-2 (FLG-2 1969-1993)) [FLG-21969-1993]” are 0.038 µg/mL and 0.3 µg/mL.
For “RGSRSGQSSRGERRGSSSGSSSR (Modified peptide derived from human hornerin (HR 1-11 3H3R))” the same measures were 0.3 µg/mL and 9.375* μg/ml.
Substance “GHHGGHGGHGHGH (Synthetic cationic intrinsically disordered antimicrobial peptide (GH13))” gave an MBC90 of 0.030 µM and an MBC100 of 0.12 µM.
Regarding “RHGSGLGHSSSH (Peptide derived from human hornerin (HR 1-27 HRNR 2657-2668)) [HR 1-27 HRNR2657-2668]”, the MBC90 is recorded as 75-100* μg/ml.
Consider “HTHSGHAHGQAGSQHGESGSSVHER (Peptide derived from human filaggrin-2 (FLG-2 2044-2068)) [FLG-22044-2068]”, for which the MBC90 stood at 0.038 µg/mL and the MBC100 worked out at 0.3 µg/mL.
The corresponding values for “HGQSTQRGSRTAGRRGSGH (Peptide derived from human filaggrin-2 (FLG-2 2087-2105)) [FLG-22087-2105]” are 0.075 µg/mL and 1.18 µg/mL.
In turn, “HGHGHGH (Synthetic cationic intrinsically disordered antimicrobial peptide (GH7))” registered an MBC90 of 0.25 µM and an MBC100 of 7.2 µM.
Take “RHGSGLGHSSSHGQH (Peptide derived from human hornerin (HR 1-26 HRNR 2657-2671)) [HR 1-26 HRNR2657-2671]”: the MBC100 is 4.7-75* μg/ml.
On to “HAHYGYGQSTQRGSRTTGRRGSGH (Peptide derived from human filaggrin-2 (FLG-2 2232-2255)) [FLG-22232-2255]”, for which the MBC90 turned out to be 0.075 µg/mL and the MBC100 was found to be 0.59 µg/mL.
“RGR (Synthetic cationic intrinsically disordered antimicrobial peptide (GR3))” showed an MBC90 of 150 µM and an MBC100 of more than 930 µM.
As for “THEHEQSHQRRDRQTHEDKQNRQR (Peptide derived from human repetin (RPTN 747-770)) [RPTN747-770]”, the MBC90 is 0.3 µg/mL and the MBC100 came to 150 µg/mL.
In turn, “HSSSHGQHGSGSGR (Peptide derived from human hornerin (HR 1-38 HRNR 2664-2677)) [HR 1-38 HRNR2664-2677]” registered an MBC100 of more than 300 µg/mL.
In turn, “HGHGH (Synthetic cationic intrinsically disordered antimicrobial peptide (GH5))” yielded an MBC90 of 6.0 µM and an MBC100 of 138 µM.
Regarding “GRHGSGSGHSSSHGQHGSGSGR (Peptide derived from human hornerin (HRNR 2186-2207)) [HRNR2186-2207]”, the MBC100 is listed as 4.7-9.37* μg/ml.
In turn, “HGH (Synthetic cationic intrinsically disordered antimicrobial peptide (GH3))” yielded an MBC90 of 200 µM and an MBC100 of more than 860 µM.
The corresponding values for “HGSGLGHSSSHGQHGSGSGR (Peptide derived from human hornerin (HR 1-8 HRNR2658-2677))” are 4.7 µg/mL and more than 300 µg/mL.
Turning to “GKKGGKGGKGKGK (Synthetic cationic intrinsically disordered antimicrobial peptide (K-GR13))”, the MBC90 turned out to be 0.063 µM and the MBC100 is 2.0 µM.
The corresponding values for “HTHSGHTHSQARSQHGESESTVHKR (Peptide derived from human filaggrin-2 (FLG-2 1894-1918)) [FLG-21894-1918]” are 0.038 µg/mL and 0.3 µg/mL.
With “RGRGRGRGR (Synthetic cationic intrinsically disordered antimicrobial peptide (GR9))”, the MBC90 turned out to be 0.22 µM; the MBC99 entry is on record as “MBC99: 10.2 μM”; the MBC100 was >400, μM.
In turn, “TAGRRGSGH (Peptide derived from human filaggrin-2 (FLG-2 2097-2105)) [FLG-22097-2105]” returned an MBC90 of more than 300 µg/mL and an MBC100 of more than 300 µg/mL.
In turn, “LGHSSSHGQHGSGSGRSSSRGPYESRLGH [HR 1-36 HRNR2663-2690]” yielded an MBC90 of 0.15 µg/mL and an MBC100 of 2.35 µg/mL.
Regarding “GRHGSGSGQSSSYSPYGSGSGWSSSR (Peptide derived from human hornerin (HRNR 2422-2447)) [HRNR2422-2447]”, the MBC100 was more than 300 µg/mL.
“HAHSGHGQSTQR (Peptide derived from human filaggrin-2 (FLG-2 2082-2093)) [FLG-22082-2093]” yielded an MBC90 of 0.15 µg/mL and an MBC100 of 2.35 µg/mL.
In the case of “GHHGGGGGHGGGHGGHGGGGGH (Modified peptide derived from human hornerin (HR 1-18 G+H)) [HR 1-18 G + H]”, the MBC90 was less than 0.006 µM and the MBC100 worked out at 0.09 µM.

Still in this test, the particulars now being: pH 5.5, 0.25% glucose; listed as HR 1-18 G+H.
For the substance “GHHGGGGGHGGGHGGHGGGGGH (Modified peptide derived from human hornerin (HR 1-18 G+H)) [HR 1-18 G + H]”, the MBC90 was less than 0.019 µg/mL and the MBC100 came to 0.075 µg/mL.

The same test, now with this note: pH 5.5, 1% TSB.
“HGSRSGQSSRGEGHGSSSGSSSH (Modified peptide derived from human hornerin (HR 1-11 R3-G R2618G))” came in with an MBC90 of 75 µg/mL and an MBC100 of more than 300 µg/mL.
For “HGSRSGQSSRGERHGSSSGSSSG (Modified peptide derived from human hornerin (HR 1-11 H3-G H2628G))” the same measures were 18.75 µg/mL and more than 300 µg/mL.
The corresponding values for “GSGSRQSSSYGRHGSGSGR (Modified peptide derived from human hornerin (HR 2-4S HRNR 1132-1150 P1139S)) [HR 2-4S HRNR1132-1150 P1139S]” are 150 µg/mL and more than 300 µg/mL.
Take “GRHGSGSGQSSSYGPYGSGSGWSSSRGPY (Peptide derived from human hornerin (HRNR 1952-1980)) [HRNR1952-1980]”: the MBC100 was more than 300 µg/mL.
The same measure, in the same setting: for “GSGSRQSPSRGRHGSGSGR (Modified peptide derived from human hornerin (HR 2-4R HRNR 1132-1150 Y1141R)) [HR 2-4R HRNR1132-1150 Y1141R]” the value was more than 300 µg/mL.
On to “GGSRSGQSSRGERHGSSSGSSSH (Modified peptide derived from human hornerin (HR 1-11 H1-GH2606G))) [HR 1-11 H1-G H2606G]”, for which the MBC90 was >300* μg/ml and the MBC100 was >300* μg/ml.
“GSGSRQSPSYGRQGSGSGR (Modified peptide derived from human hornerin (HR 2-4Q HRNR 1132-1150 H1144Q)) [HR 2-40 HRNR1132-1150 H1144Q]”: the MBC90 was more than 300 µg/mL and the MBC100 was more than 300 µg/mL.
Substance “HGSRSGQSSGGERHGSSSGSSSH (Modified peptide derived from human hornerin (HR 1-11 R2-G R2615G))” gave an MBC90 of 75 µg/mL and an MBC100 of more than 300 µg/mL.
For “GSGSRQSLSYGRHGSGSGR (Modified peptide derived from human hornerin (HR 2-4L HRNR 1132-1150 P1139L)) [HR 2-4L HRNR1132-1150 P1139L]” the same measures were 75 µg/mL and more than 300 µg/mL.
The corresponding values for “HGSSSGSSSHYGQHGSGSR (Peptide derived from human hornerin (HR 1-4 HRNR 2619-2637)) [HR 1-4 HRNR2619-2637]” are 150 µg/mL and more than 300 µg/mL.
“HGSGLGHSSSHGQHGSGSGR (Peptide derived from human hornerin (HR 1-8 HRNR2658-2677))” showed an MBC100 of more than 300 µg/mL.
Same read-out and setting: for “GRHGSGSGQSSSYGPYRSGSGWSSSRGPY (Peptide derived from human hornerin (HRNR 1013-1041)) [HRNR1013-1041]” the value was more than 300 µg/mL.
Take “HGSRSGQSSRGERGGSSSGSSSH (Modified peptide derived from human hornerin (HR 1-11 H2-G H2619G))”: the MBC90 was determined as 75 µg/mL and the MBC100 is more than 300 µg/mL.
For “HGSGSGQSSRGERHGSSSGSSSH (Modified peptide derived from human hornerin (HR 1-11 R1-G R2609G))” the same measures were >300* μg/ml and >300* μg/ml.

The same test, now with this note: pH 7.0, 0.25% glucose.
“GRHGSGGGHSSSHGGHGSGSGR (Modified peptide derived from human hornerin (HR 1-18 L-G/Q-G))”: the MBC90 was more than 300 µg/mL and the MBC100 was more than 300 µg/mL.
For “GHHGGGGGHGGGHGGHGGGGGH (Modified peptide derived from human hornerin (HR 1-18 G+H)) [HR 1-18 G + H]”, the MBC90 is more than 300 µg/mL and the MBC100 is more than 300 µg/mL.
